Patent EP2208725A1, “Novel specific inhibitors of ubiquitin specific protease 7, the pharmaceutical compositions thereof and their therapeutic applications” (Hybrigenics S.A., priority 2009, dated 2010)

Tests used:
UCH-L3 = biological target: T1, UCH-L3 (Homo sapiens, UniProt P15374); experiment: UCH-L3 activity assay (Ub-AMC); format: biochemical; conditions: 400 nM Ub-AMC, 13 pM enzyme; compounds tested from 200 µM to 91 nM; unit inferred; read-out: Inhibition of cysteine protease activities: Uch-L3
T1 sequence (P15374 1-230): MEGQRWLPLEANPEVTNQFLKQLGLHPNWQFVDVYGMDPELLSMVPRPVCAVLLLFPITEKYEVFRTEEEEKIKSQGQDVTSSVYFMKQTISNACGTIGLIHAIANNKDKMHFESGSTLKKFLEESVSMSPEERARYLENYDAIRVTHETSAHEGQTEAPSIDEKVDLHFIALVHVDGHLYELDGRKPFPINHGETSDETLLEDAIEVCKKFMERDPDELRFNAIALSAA
Experimental: UCH-L3 was diluted in USP buffer (50 mM Tris HCl; 0.5 mM EDTA; 5 mM DTT; 0.01% Triton X-100; Bovine Serum Albumin 0.05 mg.ml^-1 pH7.6). Compounds stocks (100 mM) were stored at -20°C in DMSO. Compounds were tested at different concentrations: from 200 µM to 91 nM. Reactions were performed as duplicates in Black LJL 96 well plates (HE microplates; Molecular Devices; 20 µl final reaction volume). The substrate concentration for UCH-L3 was 400 nM Ub-AMC (Boston Biochem). The concentration of the enzyme (UCH-L3) in specificity assays was 13 pM. The concentrations were determined in order to perform specificity assays under initial velocities at fixed substrate concentration. Compounds were pre-incubated with enzymes for 30 minutes at 25°C. Reactions were initiated by addition of substrate to the plates containing the enzymes (+/- compounds) diluted in assay buffer. Reactions were incubated for 60 minutes at 37°C. Reactions were stopped by adding acetic acid (100 mM final). Readings were performed on a Pherastar Fluorescent Reader (BMG). λ Emission 380 nm; λ Excitation = 460 nm. Data (mean values +/- standard deviation) were analyzed as % of control (no compound) and plotted as percentage versus the Log of the compound concentration using GraphPad (Prism). Data were fitted to a sigmoidal model (variable slope).

human USP7 = biological target: T2, human USP7 (Homo sapiens, UniProt Q93009); experiment: USP7 activity assay (Ub-AMC); format: biochemical; conditions: 300 nM Ub-AMC, 100 pM enzyme; compounds tested from 200 µM to 91 nM; unit inferred; read-out: Inhibition of cysteine protease activities: USP7
T2 construct: Full-length wild-type human USP7; His (N); made in house; host or cells: Spodoptera frugiperda Sf9 (baculovirus, pFastBac-HT)
T2 sequence (Q93009 whole entry): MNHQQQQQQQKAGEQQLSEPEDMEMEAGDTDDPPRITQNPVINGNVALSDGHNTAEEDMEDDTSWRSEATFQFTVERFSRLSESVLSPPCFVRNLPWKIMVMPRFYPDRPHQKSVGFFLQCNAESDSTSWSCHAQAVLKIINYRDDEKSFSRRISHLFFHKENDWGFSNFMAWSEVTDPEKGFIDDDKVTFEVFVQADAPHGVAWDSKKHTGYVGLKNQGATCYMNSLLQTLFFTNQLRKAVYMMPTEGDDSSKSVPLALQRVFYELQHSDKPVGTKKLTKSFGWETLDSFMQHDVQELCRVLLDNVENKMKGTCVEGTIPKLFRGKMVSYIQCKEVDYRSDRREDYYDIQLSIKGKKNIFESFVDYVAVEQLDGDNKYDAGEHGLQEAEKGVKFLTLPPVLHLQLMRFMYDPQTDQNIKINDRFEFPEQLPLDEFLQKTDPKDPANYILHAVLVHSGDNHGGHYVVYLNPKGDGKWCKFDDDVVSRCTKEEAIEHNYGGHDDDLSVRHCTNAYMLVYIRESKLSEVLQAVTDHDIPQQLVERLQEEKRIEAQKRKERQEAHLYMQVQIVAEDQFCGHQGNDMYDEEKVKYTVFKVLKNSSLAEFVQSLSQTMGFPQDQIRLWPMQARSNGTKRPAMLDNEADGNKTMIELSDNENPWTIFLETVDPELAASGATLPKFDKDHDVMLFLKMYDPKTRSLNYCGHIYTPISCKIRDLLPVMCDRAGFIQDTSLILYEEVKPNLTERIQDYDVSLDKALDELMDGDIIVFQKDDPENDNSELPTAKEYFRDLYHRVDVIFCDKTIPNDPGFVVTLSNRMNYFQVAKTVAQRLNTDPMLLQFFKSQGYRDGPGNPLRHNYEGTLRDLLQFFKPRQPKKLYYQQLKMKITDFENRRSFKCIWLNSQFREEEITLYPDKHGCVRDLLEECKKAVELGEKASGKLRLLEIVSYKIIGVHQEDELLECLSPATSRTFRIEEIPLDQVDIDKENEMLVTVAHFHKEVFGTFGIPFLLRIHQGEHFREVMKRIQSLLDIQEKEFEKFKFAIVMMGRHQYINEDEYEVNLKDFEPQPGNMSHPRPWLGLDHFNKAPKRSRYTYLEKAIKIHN
Source text: The cDNA encoding USP7 was obtained by PCR amplification from placenta mRNA. USP7 cDNA was subcloned by PCR into a baculovirus expression vector (pFastBac-HT; Invitrogen). Full-length wild-type human USP7 and its catalytic mutant (cysteine 223 replaced by alanine, C223A) were produced as N-terminally His-tagged fusions in Spodoptera frugiperda cells (Sf9, Invitrogen), using the Bac-to-Bac Baculovirus system from Invitrogen according to the manufacturer's instructions. pFastBac-HT-B-USP7 was used to transform DH10bac cells (Invitrogen), and blue/white selection was carried out on X-gal/IPTG agar plates. Bacmid DNA was prepared by an alkaline lysis procedure. The integrity of the bacmid minipreps and their orientation were checked by PCR, using generic and specific primers. Sf9 cells were cultured in InsectXpress medium (Cambrex) at 27°C and transfected with the corresponding bacmid, using GeneShuttle 40 (Q-BIOgen). Viruses were recovered in the supernatant 72 h after transfection. Viruses were amplified by infecting Sf9 cells in 50 ml InsectXpress medium in a 150 cm^2 cell culture flask with 500 µl of the supernatant from transfected Sf9 cells. Following the second round of amplification, Sf9 cells were recovered by rapid SDS lysis, boiled for 5 min at 100°C, sonicated briefly and centrifuged for 20 min at 14,000 g. Expression levels in infected Sf9 cells were compared with those in uninfected cells. […] Beads were extensively washed (50 mM sodium phosphate buffer pH 7.0, 500 mM NaCl, 10 mM Imidazole, 0.5% Triton X-100 and 10% glycerol) and bound proteins were eluted in wash buffer supplemented with 250 mM Imidazole (Sigma). Eluted fractions were resolved on 4-12% NuPAGE gels (Novex, Invitrogen). Fractions containing high concentrations of purified proteins (purity > 95%) were dialyzed (20 mM Tris HCl pH 7.6, 200 mM NaCl, 1 mM DTT, 1 mM EDTA and 10% glycerol) were aliquoted and snap frozen in liquid nitrogen before storage at -80°C.
USP7 was diluted in USP buffer (50 mM Tris HCl; 0.5 mM EDTA; 5 mM DTT; 0.01 % Triton X-100; Bovine Serum Albumin 0.05 mg.ml^-1 pH7.6). Compounds stocks (100 mM) were stored at -20°C in DMSO. Compounds were tested at different concentrations: from 200 µM to 91 nM.
Reactions were performed as duplicates in Black LJL 96 well plates (HE microplates; Molecular Devices; 20 µl final reaction volume). The substrate concentration for USP7 was 300 nM Ub-AMC (Chem. Biol., 2003, 10, p. 837-846) (Boston Biochem). The concentrations of the enzyme (USP7) in specificity assays was 100 pM. The concentrations were determined in order to perform specificity assays under initial velocities at fixed substrate concentration. Compounds were pre-incubated with enzymes for 30 minutes at 25°C. Reactions were initiated by addition of substrate to the plates containing the enzymes (+/- compounds) diluted in assay buffer. Reactions were incubated for 60 minutes at 37°C. Reactions were stopped by adding acetic acid (100 mM final). Readings were performed on a Pherastar Fluorescent Reader (BMG). λ […]. Data (mean values +/- standard deviation) were analyzed as % of control (no compound) and plotted as percentage versus the Log of the compound concentration using GraphPad (Prism). Data were fitted to a sigmoidal model (variable slope).

Row | SMILES | IC50 (UCH-L3) | IC50 (human USP7)
1 | CC(=O)C1=C(O)C(=O)N(CCc2ccc(Cl)c(Cl)c2)C1c1ccc(Br)cc1 (centres unmarked) [Example 28, 4-acetyl-5-(4-bromo-phenyl)-1-[2-(3,4-dichloro-phenyl)-ethyl]-3-hydroxy-1,5-dihydro-pyrrol-2-one] | > 200 µM | 1.61 µM
2 | CC(=O)C1=C(O)C(=O)N(CCc2ccc(Cl)cc2)C1c1ccc(Cl)cc1 (centres unmarked) [Example 46, 4-Acetyl-5-(4-chlorophenyl)-1-[2-(4-chlorophenyl)-ethyl]-3-hydroxy-1,5-dihydro-pyrrol-2-one] | > 200 µM | 4.4 µM
3 | CC(=O)C1=C(O)C(=O)N(CCc2ccccc2)C1c1ccc(Br)c(Br)c1 (centres unmarked) [Example 41, 4-acetyl-5-(3,4-dibromo-phenyl)-3-hydroxy-1-phenethyl-1,5-dihydro-pyrrol-2-one] | > 200 µM | 8.98 µM
4 | COc1cccc(CCN2C(=O)C(O)=C(C(C)=O)C2c2ccc(Br)cc2)c1 (centres unmarked) [Example 30, 4-acetyl-5-(4-bromo-phenyl)-3-hydroxy-1-[2-(3-methoxyphenyl)-ethyl]-1,5-dihydro-pyrrol-2-one] | > 200 µM | 11.1 µM
5 | CC(=O)C1=C(O)C(=O)N(CCc2ccc(Cl)cc2Cl)C1c1ccc(Br)cc1 (centres unmarked) [Example 47, 4-Acetyl-5-(4-bromophenyl)-1-[2-(2,4-dichlorophenyl)-ethyl]-3-hydroxy-1,5-dihydro-pyrrol-2-one] | > 200 µM | 1.9 µM
6 | CC(=O)C1=C(O)C(=O)N(CCc2ccccc2)C1c1ccc2c(c1)OCO2 (centres unmarked) [Example 37, 4-acetyl-5-benzo[1,3]dioxol-5-yl-3-hydroxy-1-phenethyl-1,5-dihydro-pyrrol-2-one] | > 200 µM | 7.03 µM
7 | CC(=O)C1=C(O)C(=O)N(CCc2ccccc2)C1c1cccnc1Cl (centres unmarked) [Example 42, 4-acetyl-5-(2-chloro-pyridin-3-yl)-3-hydroxy-1-phenethyl-1,5-dihydro-pyrrol-2-one] | > 200 µM | 12 µM

Now from value to molecule:

Row | IC50 (UCH-L3) | IC50 (human USP7) | SMILES
8 | > 200 µM | 3.05 µM | CC(=O)C1=C(O)C(=O)N(CCc2ccc(F)cc2)C1c1ccc(Br)cc1 (centres unmarked) [Example 33, 4-acetyl-5-(4-bromo-phenyl)-3-hydroxy-1-[2-(4-fluorophenyl)-ethyl]-1,5-dihydro-pyrrol-2-one]
9 | > 200 µM | 2.7 µM | CC(=O)C1=C(O)C(=O)N(CCc2ccc(Br)cc2)C1c1ccc(Br)cc1 (centres unmarked) [Example 26, 4-acetyl-5-(4-bromo-phenyl)-1-[2-(4-bromo-phenyl)-ethyl]-3-hydroxy-1,5-dihydro-pyrrol-2-one]
10 | > 200 µM | 3.1 µM | CC(=O)C1=C(O)C(=O)N(CCc2ccc(Cl)cc2)C1c1ccc(Br)cc1 (centres unmarked) [Example 25, 4-acetyl-5-(4-bromo-phenyl)-1-[2-(4-chloro-phenyl)-ethyl]-3-hydroxy-1,5-dihydro-pyrrol-2-one]
11 | > 200 µM | 4.2 µM | CC(=O)C1=C(O)C(=O)N(CCc2ccc(Br)cc2)C1c1ccc(Cl)cc1 (centres unmarked) [Example 45, 4-Acetyl-5-(4-chlorophenyl)-1-[2-(4-bromophenyl)-ethyl]-3-hydroxy-1,5-dihydro-pyrrol-2-one]
12 | > 200 µM | 5.28 µM | COc1ccc(CCN2C(=O)C(O)=C(C(C)=O)C2c2ccc(Br)cc2)cc1 (centres unmarked) [Example 32, 4-acetyl-5-(4-bromo-phenyl)-3-hydroxy-1-[2-(4-methoxyphenyl)-ethyl]-1,5-dihydro-pyrrol-2-one]
13 | > 200 µM | 6.6 µM | CCOc1ccc(CCN2C(=O)C(O)=C(C(C)=O)C2c2ccc(Br)cc2)cc1 (centres unmarked) [Example 34, 4-acetyl-5-(4-bromo-phenyl)-3-hydroxy-1-[2-(4-ethoxy-phenyl)-ethyl]-1,5-dihydro-pyrrol-2-one]
